# Measurements from the supplement of paper PMC10307832.
# Experiments:
# Assay in all cases: relative viability (nuclei count vs DMSO), 5 days (fraction); higher = more cells survive
# [1] = compound: C1=CC=C(C(=C1)C2=CC=C(C=C2)C3=CSC4=C3C(=C(C(=O)N4)C#N)O)O + CC(=O)Nc1cccc(-n2c(=O)n(C3CC3)c(=O)c3c(Nc4ccc(I)cc4F)n(C)c(=O)c(C)c32)c1 [Trametinib] (partner 0.02 µM)
# Outline: (§1)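 Medians of duplicate plates are given as relative viability. That measure is the nuclei count in treated wells divided by the count in vehicle wells. Counts were taken on 4× images of lung cancer cell lines in 1536-well plates, 5 days after pin-tool dosing the day after seeding with one drug alone or a fixed anchor-drug dose plus five library-drug doses (not always all listed) in √10 steps.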
# [2] = compound: C1=CC=C(C(=C1)C2=CC=C(C=C2)C3=CSC4=C3C(=C(C(=O)N4)C#N)O)O + Nc1nc2[nH]cc(CCc3ccc(C(=O)N[C@@H](CCC(=O)O)C(=O)O)cc3)c2c(=O)[nH]1 [Pemetrexed] (partner 0.2 µM)
# Outline: as §1
# Ricolinostat + Alpelisib = compound: O=C(CCCCCCNC(=O)c1cnc(N(c2ccccc2)c2ccccc2)nc1)NO [Ricolinostat] + Cc1nc(NC(=O)N2CCC[C@H]2C(N)=O)sc1-c1ccnc(C(C)(C)C(F)(F)F)c1 [Alpelisib] (partner 2 µM)
# Outline: as §1
# [3] = compound: O=C(CCCCCCNC(=O)c1cnc(N(c2ccccc2)c2ccccc2)nc1)NO [Ricolinostat] + Nc1ncn([C@H]2C[C@H](O)[C@@H](CO)O2)c(=O)n1 [Decitabine] (partner 2 µM)
# Outline: as §1
Cell Line,relative viability ([1]; first compound 0.08 µM),relative viability ([1]; first compound 0.253 µM),relative viability ([1]; first compound 0.8 µM),relative viability ([1]; first compound 2.53 µM),relative viability ([1]; first compound 8 µM),relative viability ([2]; first compound 0.08 µM),relative viability ([2]; first compound 0.253 µM),relative viability ([2]; first compound 0.8 µM),relative viability ([2]; first compound 2.53 µM),relative viability ([2]; first compound 8 µM),relative viability (Ricolinostat + Alpelisib; first compound 0.08 µM),relative viability (Ricolinostat + Alpelisib; first compound 0.253 µM),relative viability (Ricolinostat + Alpelisib; first compound 0.8 µM),relative viability (Ricolinostat + Alpelisib; first compound 2.53 µM),relative viability ([3]; first compound 0.08 µM),relative viability ([3]; first compound 0.253 µM),relative viability ([3]; first compound 0.8 µM),relative viability ([3]; first compound 2.53 µM)
A-427,0.688,0.842,0.772,0.746,0.858,0.941,1.11,1.03,1.01,0.989,0.927,1.07,1.09,0.983,0.547,0.591,0.559,0.558
NCI-H1975,0.348,0.412,0.337,0.311,0.345,0.312,0.288,0.302,0.307,0.295,0.582,0.556,,0.492,0.371,0.394,0.382,0.379
HCC-827,0.538,0.368,0.538,0.535,0.536,0.283,0.25,0.244,0.305,0.282,0.615,0.938,0.935,0.985,0.32,0.327,0.233,0.274
UMC-11,,0.649,0.695,0.658,0.551,,0.577,0.878,0.83,0.628,0.882,1.09,0.961,0.856,0.551,0.543,0.561,0.417
NCI-H3122,0.289,0.233,0.223,0.253,0.295,0.19,0.201,0.22,0.213,0.19,0.514,0.942,0.785,0.964,0.388,0.404,0.443,0.529
LXF-289,0.682,0.695,0.656,0.722,0.755,0.818,0.871,0.909,0.926,0.89,0.961,1,1.06,1.01,0.407,0.366,0.384,0.347
NCI-H647,,0.422,0.57,0.493,0.25,,0.18,0.16,0.17,0.189,1.16,1.09,1.15,0.937,0.365,0.317,0.31,0.312
